Data as given in patent US7585941B2 (priority 2004, dated 2009).
Where two headings read alike, the source gives them in different places.

Columns and labels:
rMOR-1A [1] = molecular target: T1, rMOR-1A (Rattus norvegicus, UniProt P33535); assay: biochemical; assay type: biochemical
Procedure: (§1) Basal [^35S]GTPγS binding was assessed in membranes from cells stably transfected with the individual variants. The ability multiple concentrations of the indicated opioid to stimulate [^35S]GTPγS binding was determined. […] Results are the means ±S.E.M. of at least three independent determinations.

rMOR-1C1 [2] = molecular target: T2, rMOR-1C1 (Rattus norvegicus, UniProt P33535); assay: biochemical; assay type: biochemical
Procedure: as §1

rMOR-1 [3] = molecular target: T3, rMOR-1 (Rattus norvegicus, UniProt P33535); assay: biochemical; assay type: biochemical
Procedure: as §1

rMOR-1D [4] = molecular target: rMOR-1D (Rattus norvegicus, UniProt P33535, I238V); assay: biochemical; assay type: biochemical
Procedure: as §1

hMOR-1 variants = details: for range of the maximal inhibitions among the variants: relative efficacy, Table 5
rMOR-1 (no Exon 4) = rMOR-1 (no Exon 4) (Rattus norvegicus, UniProt P33535); assay: biochemical; assay type: biochemical
Procedure: as §1

hMOR-1 = hMOR-1 (Homo sapiens, UniProt P35372); assay: biochemical; assay type: binding
rMOR-1D [5] = molecular target: T4, rMOR-1D (Rattus norvegicus, UniProt P33535); assay: biochemical; assay type: binding
rMOR-1 (no E4) = molecular target: T5, rMOR-1 (no E4) (Rattus norvegicus, UniProt P33535); assay: biochemical; assay type: binding
T5 construct: rMOR-1 no E 4; expressed in transfected cells

hMOR-1B1 = hMOR-1B1 (Homo sapiens, UniProt P35372); assay type: binding
hMOR-1B2 = hMOR-1B2 (Homo sapiens, UniProt P35372); assay: biochemical; assay type: binding
hMOR-1Y = hMOR-1Y (Homo sapiens, UniProt P35372); assay: biochemical; assay type: binding
hMOR-1A = hMOR-1A (Homo sapiens, UniProt P35372); assay: biochemical; assay type: binding
rMOR-1A [6] = molecular target: T1, rMOR-1A; assay: biochemical; assay type: binding
hMOR-1B4 [7] = molecular target: hMOR-1B4 (Homo sapiens, UniProt P35372); assay: biochemical; assay type: binding
hMOR-1B3 = hMOR-1B3 (Homo sapiens, UniProt P35372); assay: biochemical; assay type: binding
rMOR-1D [8] = molecular target: T4, rMOR-1D; assay: biochemical; assay type: biochemical
Procedure: as §1

rMOR-1 [9] = molecular target: T3, rMOR-1; assay type: binding
rMOR-1C1 [10] = molecular target: T2, rMOR-1C1; assay: biochemical; assay type: binding
[11] = as an analgesic and as a respiratory depressant; background statement; cited from earlier work
hMOR-1B4 [12] = molecular target: hMOR-1B4 (Homo sapiens, UniProt P35372, I109V); assay: biochemical; assay type: binding
hMOR-1B5 = hMOR-1B5 (Homo sapiens, UniProt P35372); details: cho cells

Compound: C[C@@H](NC(=O)[C@@H](N)Cc1ccc(O)cc1)C(=O)NCC(=O)N(C)[C@@H](Cc1ccccc1)C(=O)NCCO [DAMGO, [D-Ala^2,MePhe^4,Gly(ol)^5]enkephalin]
- Max Stim (%) (rMOR-1A [1]; percent increase over basal binding, rMOR-1A): 176 ± 24%
- Max Stim (%) (rMOR-1C1 [2]; percent increase over basal binding, rMOR-1C1): 233 ± 45%
- Max Stim (%) (rMOR-1 [3]; percent increase over basal binding, rMOR-1): 233 ± 44%
- Max Stim (%) (rMOR-1D [4]; percent increase over basal binding, rMOR-1D): 113 ± 22%
- range of the maximal inhibitions among the variants (hMOR-1 variants): 63-100%
- Max Stim (%) (rMOR-1 (no Exon 4); percent increase over basal binding, rMOR-1 (no Exon 4)): 196 ± 37%

Compound: Endomorphin 2
- fold less potent in competing binding to hMOR-1 (hMOR-1): 5- to 7 fold

Compound: CC(C)C[C@H](NC(=O)[C@H](Cc1ccccc1)NC(=O)CNC(=O)[C@@H](CO)NC(=O)[C@@H](N)Cc1ccc(O)cc1)C(=O)N[C@H](C(=O)O)[C@@H](C)O [DSLET, [D-Ser^2, Leu^5]enkephalin-Thr^6]
- Ki (rMOR-1D [5]): 0.0273 ± 0.0073 µM
- Ki (rMOR-1 (no E4)): 0.0242 ± 0.0019 µM
- Ki (hMOR-1B1): 0.0139 ± 0.0049 µM
- EC50 (rMOR-1A [1]): 0.127 ± 0.045 µM
- Max Stim (%) (rMOR-1A [1]): 206 ± 23%
- Ki (hMOR-1B2): 0.0344 ± 0.0064 µM
- Ki (hMOR-1Y): 0.0154 ± 0.0035 µM
- Ki (hMOR-1A): 0.0197 ± 0.0077 µM
- Ki (rMOR-1A [6]): 0.0445 ± 0.0051 µM
- Ki (hMOR-1): 0.0191 ± 0.0058 µM
- Ki (hMOR-1B4 [7]): 0.0223 ± 0.002 µM
- EC50 (rMOR-1C1 [2]): 0.253 ± 0.075 µM
- Max Stim (%) (rMOR-1C1 [2]): 312 ± 19%
- EC50 (rMOR-1 [3]): 0.076 ± 0.017 µM
- Max Stim (%) (rMOR-1 [3]): 251 ± 5%
- Ki (hMOR-1B3): 0.0164 ± 0.0028 µM
- Max Stim (%) (rMOR-1D [4]): 187 ± 19%
- EC50 (rMOR-1D [8]): 0.54 ± 0.129 µM
- Ki (rMOR-1 [9]): 0.0309 ± 0.0019 µM
- Ki (rMOR-1C1 [10]): 0.045 ± 0.0087 µM
- EC50 (rMOR-1 (no Exon 4)): 0.69 ± 0.179 µM
- Max Stim (%) (rMOR-1 (no Exon 4)): 226 ± 15%

Compound: COc1ccc2c3c1O[C@H]1[C@@H](O)C=C[C@H]4[C@@H](C2)N(C)CC[C@@]341 [codeine]
- effectiveness orally relative to parenterally [11]: approximately 60%

Compound: CC1(C)SSC(C)(C)[C@@H](NC(=O)[C@@H](N)Cc2ccc(O)cc2)C(=O)NCC(=O)N[C@@H](Cc2ccccc2)C(=O)N[C@H]1C(=O)O [DPDPE, [D-Pen^2, D-Pen-^5]enkephalin]
- competition of [3H]DAMGO binding (in words) (human MOR-1 variants): inactive

Compound: Endomorphin 1
- EC50/Ki (rMOR-1A [1]): 2.3
- Max Stim (%) (rMOR-1A [1]): 205 ± 34%
- affinity for hMOR-1B2 compared to other variants (in words) (hMOR-1B2): relative lower affinities
- EC50/Ki (rMOR-1C1 [2]): 13.8
- Max Stim (%) (rMOR-1C1 [2]): 377 ± 40%
- EC50/Ki (rMOR-1 [3]): 3.4
- Max Stim (%) (rMOR-1 [3]): 320 ± 23%
- EC50/Ki (rMOR-1D [4]): 25.6
- Max Stim (%) (rMOR-1D [4]): 145 ± 29%
- EC50/Ki (rMOR-1 (no Exon 4)): 25.9
- Max Stim (%) (rMOR-1 (no Exon 4)): 189 ± 16%

Compound: CC[C@H](C)[C@H](NC(=O)[C@H](C)NC(=O)[C@H](CC(N)=O)NC(=O)[C@H](CCCCN)NC(=O)[C@H](Cc1ccccc1)NC(=O)[C@H](CC(C)C)NC(=O)[C@@H](NC(=O)[C@@H](NC(=O)[C@H](CC(C)C)NC(=O)[C@@H]1CCCN1C(=O)[C@@H](NC(=O)[C@H](CCC(N)=O)NC(=O)[C@H](CO)NC(=O)[C@H](CCCCN)NC(=O)[C@H](CCC(=O)O)NC(=O)[C@H](CO)NC(=O)[C@@H](NC(=O)[C@H](CCSC)NC(=O)[C@H](Cc1ccccc1)NC(=O)CNC(=O)CNC(=O)[C@@H](N)Cc1ccc(O)cc1)[C@@H](C)O)[C@@H](C)O)C(C)C)[C@@H](C)O)C(=O)N[C@H](C(=O)N[C@@H](CCCCN)C(=O)N[C@@H](CC(N)=O)C(=O)N[C@@H](C)C(=O)N[C@@H](Cc1ccc(O)cc1)C(=O)N[C@@H](CCCCN)C(=O)N[C@@H](CCCCN)C(=O)NCC(=O)N[C@@H](CCC(=O)O)C(=O)O)[C@@H](C)CC [β-Endorphin]
- affinity for hMOR-1B2 compared to other variants (in words) (hMOR-1B2): lower affinities
- affinity for hMOR-1B4 compared to other variants (in words) (hMOR-1B4 [12]): lower affinities
- variation of IC50 values among the variants (hMOR-1 variants; cAMP inhibition, among human variants): 3- to 16 fold
- range of the maximal inhibitions among the variants (hMOR-1 variants): 72-100%
- IC50 value variation between hMOR-1 and hMOR-1B5 (hMOR-1B5): over 16 fold
